# Measured values reported in patent publication US6379959B1, “Metalocarboxypeptidase inhibitors and derived molecules used as antitumor agents” (Universitat Autonoma de Barcelona, priority 1996, dated 2002).
# Where “and” joins values, the source holds several entries; their conditions need not be identical. Identical values can stand only once. Like-named read-outs stand apart in the source and are kept apart here. Positions of bridges follow the written chain, without caps; N, C: chain ends. No end group written: not given here.
# Key:
# [1] = tested on: Int-2 murine insulinoma cell line; test: Proliferation of Int-2 cells pretreated with PCI; type: cell-based; settings: pretreatment 50 μg/mL of PCI, 7, 20 and 30 days; treatments 7, 8 and 5 days
# Experimental: The analysed cell lines were Capan-1, already described, and Int-2. This latter being a murine insulinoma cell line derived from transgenic mice developed in the lab of Dr. M. Frazier. The medium employed for the growth of both lines was DMEM+10%FBS and the culture techniques that were used were identical to those previously described. In the case of the Int-2 cell line, only proliferation tests were performed. They were carried out in the same way as that described in the case of Capan-1, with the unique difference that the number of cells that was put per well in the plate of 96 was 500 instead of 2,000.
# embryonic cells of mice = settings: PCI in low concentrations (5 μg/mL), in vitro; cited from earlier work
# [2] = tested on: human pancreatic adenocarcinoma cell line Panc-1; type: cell-based; settings: SFM, 72 h
# EGF receptor = EGF receptor (Homo sapiens, UniProt P00533); test: Kinase activity (phosphorilation) of the EGF receptor, A431 cells; type: cell-based; design: endogenous in cells; host or cells: A431 (squamous cancer cell line)
# Experimental: The material and protocol used have been those described by Donato, N. J. et al. (1989) J. Cell. Biochem., 41: 139-157.
# 1.c. Wash the cells twice more with tempered PBS and add new serum-free medium. Immediately after, add PCI to the concentration which is going to be studied in the cultures to be treated and incubate for 10 min at 37° C.
# 2.a. […] Incubate for 1 h in ice.
# 3.a. Prepare the reaction buffer. Each sample requires 50μL.
# 3.k. Dry the gel (for at least 3 h) and autoradiograph it for 10 min for the A431 cell line and 2-4 h for the Capan-1 cell line. Count the radiactivity of the filter using a beta counter.
# The kinase activity in absence of PCI (basal) is taken as 100% and the values of kinase activity have been compared in various concentrations of PCI in relation to this basal activity.
# p53 = test: Gene expression analysis by Northern transfer, p53 probe; type: cell-based, human; settings: for beta counts, p53 probe: 12 days, Capan-1 (control 138)
# Experimental: (§1) To verify whether the PCI plays any role in signal transduction, studies of gene expression were carried out by Northern transfer. The probes were: β2-microglobulin, p53 and trypsin. The β2-microglobulin is a constitutive gene that is used as a sample loading control in the gel. p53 is a transcription factor which, among other functions, controls the state of the genomic DNA and the cell cycle (Bates, S. & Vousden, K. H. (1996) Curr. Opin. Genet. Develop., 6: 12-19). If the DNA is damaged, p53 induces its repair and, if it is excessively damaged, it provokes programmed cellular death (apoptosis). Trypsin is a marker of pancreatic cells of the acinar type. The trypsin is not expressed by all the tumoral cells and it is believed that it is expressed by the cells with metastatic power and/or invasive power (Fernández, E. et al., (1994) Cancer, 73: 2285-2295). The probes employed are described as follows:
# (§2) In the first place, 3×10^6 cells of the human pancreatic adenocarcinoma cell line Capan-1 were placed in each one of the 12 flasks of 150 cm^2. […] They were maintained in culture for 12 days period, changing their medium every 4 days, adding fresh PCI. Once the treatment was completed, the cells were trypsinized and the sediment of the cells was kept at −80° C. Afterwards, the extraction of the RNA was carried out.
# (§3) The quantifying of the hybridized filters with the respective probes was done using a Betascope 601 blot Analyzer counter (Betagen, USA). The counting time was 45 min for the hybridized filter with the probe p53 and β2-microglobuline and 2 h for the trypsin probe.
# (§4) Assuming that the counts of the β2-Microglobuline are an indication of the total amount of poly(A^+) RNA, the data may be standardized as a percentage of counts of the band compared to the β2-microglobuline counts of the same cells, giving a value which depends on the abundance of the specific mRNA in relation to the total of mRNA.
# [3] = tested on: mouse melanoma B16HM cell line; test: In vitro invasiveness assay through Matrigel membrane; type: cell-based; settings: PCI 50 μg/mL
# Experimental: In this test, with the aim of determining whether the PCI causes some difference in the invasive capacity of tumoral cells in vitro, the number of cells which had migrated through a membrane of Matrigel© in presence or absence of PCI in the culture medium was determined. The detailed protocol is as follows:
# 1. The wells of Matrigel© which are going to be employed are placed at room temperature on an empty plate of 24.
# 2. The wells are hydrated by adding […] of tempered full medium and kept for 1.5-2.0 h.
# 3. After the hydration, take the medium carefully out of the wells; later on, 200,000 cells are added to two wells, respectively. In one of them, we will add the medium in which the cells grow and in the other, medium with PCI.
# 4. After 17 h of culture in an incubator at 37° C., 90% of relative humidity and 5% of CO2, the samples are processed as follows:
# 4.11. Look at the microscope and count the number of cells that have migrated through the Matrigel filter.
# The invasiveness tests in vitro were carried out with the mouse melanoma B16HM cell line selected as previously described (Barberàr-Guillem, E. et al. (1988) Invasion Metastasis, 8: 266-284). The wells were placed with medium in absence of PCI (control) and in presence of PCI, at a concentration of 50 μg/mL. […]
# trypsin = test: Gene expression analysis by Northern transfer, trypsin probe; type: cell-based, human; settings: for beta counts, Trypsin probe: 12 days, Capan-1 (control 511)
# Experimental: as §1, §2, §3, §4
substance,measurement,setting,value
"PCI: potato carboxypeptidase inhibitor, isoform IIa, obtained by recombinant DNA techniques in E. coli (SEQ ID NO.2) (EQHADPICNKPCKTHDDCSGAWFCQACWNSARTCGPYVG; disulfide 12-27, 18-34, 8-24)",growth of pretreated cells cultured later in the absence of the protein compared to non-pretreated cells,[1],approximately half
same,tumoral transformation induced by irradiation,embryonic cells of mice,inhibits in vitro the tumoral transformation
same,Growth (Percentage in relation to the average of the controls),[2]; EGF 10 ng/mL + 50 mg/mL wtPCI,15.81%
same,Growth (Percentage in relation to the average of the controls),[2]; Insulin 5 mg/mL + 50 mg/mL wtPCI,26.34%
same,Kinase activity (%),EGF receptor; 1 ng/ml EGF + 1 mg/mL PCI,126%
same,Kinase activity (%),EGF receptor; 1 ng/ml EGF + 10 mg/mL PCI,108%
same,Kinase activity (%),EGF receptor; 1 ng/ml EGF + 50 mg/mL PCI,53%
same,Kinase activity (%),"EGF receptor; basal, incubation with PCI 1 mg/mL, 10 min, 100% = absence of PCI",68%
same,Kinase activity (%),"EGF receptor; basal, incubation with PCI 50 mg/mL, 10 min, 100% = absence of PCI",78% and 61% and 80% and 77%
same,Kinase activity (%),"EGF receptor; basal, incubation with PCI 100 mg/mL, 10 min, 100% = absence of PCI",29%
same,kinase activity of the receptor under EGF,"EGF receptor; highest dose of PCI, 50 μg/mL, with EGF",reduced to half the basal activity
same,higher transcription of p53 in relation to the control group cells (treatment/control),p53; 1 mg/mL PCI,2.8 times
same,p53/b2 (counts of one band in relation to those of β2-microglobuline),p53; 1 mg/mL PCI (control 0.1445),0.4040
same,"beta counts, p53 probe",p53; 1 mg/mL PCI,882
same,higher transcription of p53 in relation to the control group cells (treatment/control),p53; 10 mg/mL PCI,1.2 times
same,"beta counts, p53 probe",p53; 10 mg/mL PCI,1111
same,stimulation of the migration compared to the control,[3],3.5 times
same,number of cells that passed through the Matrigel membrane,[3]; 17 h (control 29 cells),110 cells
same,"lower transcription of trypsin, inverse quotient (control/treatment)",trypsin; 1 mg/mL PCI,2.9 times
same,Trypsin/b2 (counts of one band in relation to those of β2-microglobuline),trypsin; 1 mg/mL PCI (control 0.5351),0.1814
same,"beta counts, Trypsin probe",trypsin; 1 mg/mL PCI,396
same,"lower transcription of trypsin, inverse quotient (control/treatment)",trypsin; 10 mg/mL PCI,7.8 times
same,Trypsin/b2 (counts of one band in relation to those of β2-microglobuline),trypsin; 10 mg/mL PCI (control 0.5351),0.0687
same,"beta counts, Trypsin probe",trypsin; 10 mg/mL PCI,432
